{
  "source": "paper PMC2954059",
  "about": "(Journal of medicinal chemistry, 2010)",
  "key": {"[1]": {"assay": "Concentrations of 1 in mouse serum and tissue samples by LC-MS/MS", "type": "in vivo, C57BL/6 mice"}, "[2]": {"biological_target": "T1, calpain II from porcine kidney (Sus scrofa, UniProt A6YNL5)", "T1 sequence (A6YNL5 20-700)": "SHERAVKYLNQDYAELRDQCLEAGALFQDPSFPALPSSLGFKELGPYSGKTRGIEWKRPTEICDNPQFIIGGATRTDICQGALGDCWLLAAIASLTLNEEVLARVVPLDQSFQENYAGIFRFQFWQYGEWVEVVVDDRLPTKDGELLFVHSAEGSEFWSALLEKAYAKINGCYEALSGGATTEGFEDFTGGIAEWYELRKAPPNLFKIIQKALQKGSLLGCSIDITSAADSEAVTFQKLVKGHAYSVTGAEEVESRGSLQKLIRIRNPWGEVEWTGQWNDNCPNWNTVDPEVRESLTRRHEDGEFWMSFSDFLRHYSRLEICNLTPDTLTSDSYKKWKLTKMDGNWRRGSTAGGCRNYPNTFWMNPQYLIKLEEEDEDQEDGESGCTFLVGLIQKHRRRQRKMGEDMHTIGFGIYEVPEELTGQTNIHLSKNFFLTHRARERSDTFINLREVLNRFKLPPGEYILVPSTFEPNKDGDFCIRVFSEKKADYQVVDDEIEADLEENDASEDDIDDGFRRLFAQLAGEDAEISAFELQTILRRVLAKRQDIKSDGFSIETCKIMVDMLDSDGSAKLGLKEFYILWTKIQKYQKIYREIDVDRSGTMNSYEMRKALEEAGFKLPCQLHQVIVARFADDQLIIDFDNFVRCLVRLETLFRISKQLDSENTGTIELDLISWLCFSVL", "T1 sequence (P04574 1-266 partner)": "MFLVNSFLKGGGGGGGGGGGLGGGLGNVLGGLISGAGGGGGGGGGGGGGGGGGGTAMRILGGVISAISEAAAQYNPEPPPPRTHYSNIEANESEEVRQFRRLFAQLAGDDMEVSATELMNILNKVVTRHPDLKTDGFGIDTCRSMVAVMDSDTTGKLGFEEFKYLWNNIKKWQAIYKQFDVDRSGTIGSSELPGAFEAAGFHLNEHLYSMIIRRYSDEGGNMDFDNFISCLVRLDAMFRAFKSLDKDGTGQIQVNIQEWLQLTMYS", "assay": "Calpain II inhibition, fluorogenic Suc-Leu-Tyr-AMC assay, Ki by Dixon plots", "type": "biochemical", "conditions": "selectivity calpain I over calpain II"}, "[3]": {"biological_target": "Cathepsin B from human liver (Homo sapiens, UniProt P07858)", "assay": "Cathepsin B inhibition, fluorogenic Cbz-Arg-Arg-AMC assay, Ki by Dixon plots", "type": "biochemical"}, "[4]": {"biological_target": "T2, Calpain I from porcine erythrocytes (Sus scrofa, UniProt P35750)", "T2 sequence (P35750 1-714)": "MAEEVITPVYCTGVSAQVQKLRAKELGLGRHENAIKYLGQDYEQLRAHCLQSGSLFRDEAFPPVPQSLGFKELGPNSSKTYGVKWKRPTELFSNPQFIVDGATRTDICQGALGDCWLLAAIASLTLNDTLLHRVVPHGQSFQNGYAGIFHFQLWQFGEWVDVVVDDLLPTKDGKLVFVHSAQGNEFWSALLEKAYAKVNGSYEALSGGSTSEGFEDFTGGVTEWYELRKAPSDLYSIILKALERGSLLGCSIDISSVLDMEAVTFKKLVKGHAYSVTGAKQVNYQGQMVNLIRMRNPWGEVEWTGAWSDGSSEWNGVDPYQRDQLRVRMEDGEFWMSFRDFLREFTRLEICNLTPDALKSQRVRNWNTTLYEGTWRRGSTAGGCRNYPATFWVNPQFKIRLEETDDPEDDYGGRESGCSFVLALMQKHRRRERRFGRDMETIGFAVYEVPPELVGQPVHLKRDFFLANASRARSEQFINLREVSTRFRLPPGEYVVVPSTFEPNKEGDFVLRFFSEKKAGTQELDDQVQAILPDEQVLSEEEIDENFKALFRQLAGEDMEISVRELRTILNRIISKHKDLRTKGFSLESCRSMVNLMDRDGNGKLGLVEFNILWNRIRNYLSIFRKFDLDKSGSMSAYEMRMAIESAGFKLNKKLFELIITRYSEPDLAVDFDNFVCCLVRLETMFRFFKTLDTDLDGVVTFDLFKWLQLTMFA", "T2 sequence (P04574 1-266 partner)": "T1 sequence (P04574 1-266 partner)", "assay": "Calpain I inhibition, fluorogenic Suc-Leu-Tyr-AMC assay, Ki by Dixon plots"}, "[5]": {"type": "in vivo, C57BL/6 mice", "conditions": "24 mg/kg subcutaneous; for Concentration in the mouse brain: N = 3; for Concentration observed in brain, in molar terms: mouse brain, the quantified mouse (4a 8 h, 4d 2 h)"}},
  "note": "Where two headings read alike, the source gives them in different places. Marks after values point to notes of the source that are not given here.",
  "data": [
    {"smiles": "CCC(NC(=O)[C@H](CC(C)C)NC(=O)OCc1ccccc1)C(=O)C(=O)NCCCN1CCOCC1", "note": "(stereo partly drawn) [Compound 1, Cbz-Leu-D,L-Abu-CONH-(CH2)3-morpholine]", "values": [
      {"measurement": "concentration at 1 h", "setting": "[1]; female, C57BL/6, mouse, liver, heart, kidney, spleen, other: subcutaneous or intravenous, 24 mg/kg", "value": "> 500", "unit": "ng/g"},
      {"measurement": "Bioavailability via subcutaneous or oral administration", "setting": "[1]; mice, 24 mg/kg", "value": "good"},
      {"measurement": "Detection in the brain", "setting": "[1]; mice, 24 mg/kg subcutaneous, intravenous or oral", "value": "could not be detected"}
    ]},
    {"smiles": "CC(C)C[C@H](NC(=O)OCc1ccccc1)C(=O)NC(Cc1ccccc1)C(=O)C(=O)NCCCN(C)C", "note": "(stereo partly drawn) [Compound 5e, 3-(Benzyloxycarbonyl-L-leucylamino)-N-(3-(dimethylamino)propyl)-2-oxophenylbutanamide]", "values": [
      {"measurement": "fold less potent on calpain II than on calpain I", "setting": "[2]", "value": 3, "unit": "fold"},
      {"measurement": "selectivity for calpain I and calpain II versus cathepsin B", "setting": "[3]", "value": "good selectivity"}
    ]},
    {"smiles": "CC(C)C[C@H](NC(=O)OCc1ccccc1)C(=O)NC(Cc1ccccc1)C(=O)C(=O)NCCCn1ccc(N)nc1=O", "note": "(stereo partly drawn) [Compound 5c]", "values": [
      {"measurement": "selectivity for calpain I and calpain II versus cathepsin B", "setting": "[3]", "value": "equally potent"},
      {"measurement": "fold less potent than the adenine derivatives", "setting": "[4]", "value": "3- to 8 fold"}
    ]},
    {"smiles": "CCC(NC(=O)[C@H](CC(C)C)NC(=O)OCc1ccccc1)C(=O)C(=O)NCCCN1CCN(C)CC1", "note": "(stereo partly drawn) [Compound 4d, 3-(Benzyloxycarbonyl-L-leucylamino)-N-(3-(4-methylpiperazin-1-yl)propyl)-2-oxopentanamide]", "values": [
      {"measurement": "Concentration in the mouse brain", "setting": "[5]; 1 hour", "value": "could be detected"},
      {"measurement": "Concentration in the mouse brain", "setting": "[5]; 2 hour, numeric value from one mouse, other two NQ", "value": "1.14 ± 0.02 ^b µg/g tissue"},
      {"measurement": "Concentration observed in brain, in molar terms", "setting": "[5]", "value": "approximately 2 µM"}
    ]},
    {"smiles": "CC(C)C[C@H](NC(=O)OCc1ccccc1)C(=O)NC(Cc1ccccc1)C(=O)C(=O)NCCCN1CCN(C)CC1", "note": "(stereo partly drawn) [Compound 5d, 3-(Benzyloxycarbonyl-L-leucylamino)-N-(3-(4-methylpiperazin-1-yl)propyl)-2-oxophenylbutanamide]", "values": [
      {"measurement": "selectivity for calpain I and calpain II versus cathepsin B", "setting": "[3]", "value": "good selectivity"}
    ]},
    {"smiles": "COc1nc(N)c2ncn(CCCNC(=O)C(=O)C(Cc3ccccc3)NC(=O)[C@H](CC(C)C)NC(=O)OCc3ccccc3)c2n1", "note": "(stereo partly drawn) [Compound 5b, 3-(Benzyloxycarbonyl-L-leucylamino)-N-(3-(6-amino-2-methoxy-9H-purin-9-yl)propyl)-2-oxophenylbutanamide]", "values": [
      {"measurement": "fold less potent on calpain II than on calpain I", "setting": "[2]", "value": 5, "unit": "fold"}
    ]},
    {"smiles": "CCC(NC(=O)[C@H](CC(C)C)NC(=O)OCc1ccccc1)C(=O)C(=O)NCCCn1ccc(N)nc1=O", "note": "(stereo partly drawn) [Compound 4c]", "values": [
      {"measurement": "fold less potent than the adenine derivatives", "setting": "[4]", "value": "3- to 8 fold"}
    ]},
    {"smiles": "CCC(NC(=O)[C@H](CC(C)C)NC(=O)OCc1ccccc1)C(=O)C(=O)NCCCn1cnc2c(N)ncnc21", "note": "(stereo partly drawn) [Compound 4a, 3-(Benzyloxycarbonyl-L-leucylamino)-N-(3-(6-amino-9H-purin-9-yl)propyl)-2-oxopentanamide]", "values": [
      {"measurement": "Concentration in the mouse brain", "setting": "[5]; 8 hour, numeric value from one mouse, other two NQ", "value": "1.17 ± 0.01 ^b µg/g tissue"},
      {"measurement": "Concentration observed in brain, in molar terms", "setting": "[5]", "value": "approximately 2 µM"}
    ]}
  ]
}
